From patent publication US6444850B1, “Fungicidial compounds having a fluorovinyloxphyenyl moiety and process for the preparation thereof” (priority 1997, dated 2002)

Tests used:
[1] = tested on: Phytophthora infestans; type: in vivo; settings: 50 ppm; control value, tomato late blight
[2] = tested on: Puccinia recondita; experiment: Fungicidal activity against wheat leaf rust (WLR) disease; type: in vivo; settings: for C. V. (%), Fungicidal Activities against WLB at 10 ppm: Table 8 (Test Example 5); for C. V. (%) WLR: 50 ppm, control value, wheat leaf rust
[3] = tested on: Botrytis cinerae; experiment: Fungicidal activity against cucumber gray mold rot (CGM) disease; type: in vivo; settings: 50 ppm, control value
Experimental: Botrytis cinerae, which was isolated from cucumber infected thereby, was inoculated on a PDA agar medium and cultured under a 12L/12D cycle at 25° C. for 15 days to form spore. The spores were scraped, filtered through a gauze and then suspended in potato dextrose liquid medium at a concentration of 1×10^6 spore/ml. The spore suspension was sprayed on a cucumber plant having one leaf. The cucumber plant was held in a humidified room at 20° C. for 3 days. L.A. on a leaf was measured to calculate an C.V.

[4] = tested on: Rhizoctonia solani AG-1; experiment: Fungicidal activity against rice sheath blight (RSB) disease; settings: 50 ppm, control value
[5] = tested on: Pyricularia oryzae Carvara KA301; type: in vivo; settings: for C. V. (%) RCB: 50 ppm, control value, rice blast; for C. V. (%) Fungicidal Activities against RCB at 10 ppm / C. V. (%) Fungicidal Activities against RCB at 10 ppm (TABLE 6): sprayed on Nakdong rice plant, control value from lesion area
[6] = tested on: Erysiphae graminis; experiment: Fungicidal activity against barley powdery mildew (BPM) disease; type: in vivo; settings: for C. V. (%), Fungicidal activities against TLB at 10 ppm: Table 9 (Test Example 6); for C. V. (%) BPM: 50 ppm, control value, barley powdery mildew
Experimental: Erysiphae graminis was subcultured on a wheat plant in a laboratory. 15 g of barley seeds was sowed in a pot (diameter 6.5 cm) and cultured in a greenhouse for 7 days to obtain a barley plant having only a primary leaf. The barley plant was inoculated with spores by shaking thereover another plant infected by BPM. The inoculated barley plant was cultured in an incubator maintained at a temperature of 22 to 24° C. and a relative humidity of 50% for 7 days to induce BPM. L.A. on the leaf was measured to calculate an C.V.

Structure (SMILES) | C. V. (%) TLB [1] [%] | C. V. (%), Fungicidal Activities against WLB at 10 ppm [2] [%] | C. V. (%) WLR [2] [%] | C. V. (%) CGM [3] [%] | C. V. (%) RSB [4] [%] | C. V. (%) RCB [5] [%] | C. V. (%), Fungicidal activities against TLB at 10 ppm [6] [%] | C. V. (%) BPM [6] [%] | C. V. (%) Fungicidal Activities against RCB at 10 ppm [5] [%] | C. V. (%) Fungicidal Activities against RCB at 10 ppm (TABLE 6) [5] [%]
CO/C=C(/C(=O)OC)c1ccccc1COc1cccc(OC(F)=Cc2ccccc2)c1 [Compound 1, methyl (2E)-3-methoxy-2-{2′-{3″-(2′″-fluorostyryl)-2′″-oxy}phenoxymethyl}phenyl-2-propenoate] | 70 | 96 | 100 | 62 | 95 | 97 | 100 | 100 |  | 
CNC(=O)/C(=C/OC)c1ccccc1COc1cccc(OC(F)=Cc2ccccc2)c1 [Compound 2, (2E)-N-methyl-3-methoxy-2-{2′-{3″-(2′″-fluorostyryl)-2′″-oxy}phenoxymethyl}phenyl-2-propenamide] | 74 |  | 96 | 84 | 50 | 100 |  | 86 |  | 
CON=C(C(=O)OC)c1ccccc1COc1cccc(OC(F)=Cc2ccccc2)c1 [Compound 3] | 70 |  | 93 | 15 | 70 | 100 |  | 41 |  | 
COC(=O)C(=CSC)c1ccccc1COc1cccc(OC(F)=Cc2ccccc2)c1 [Compound 4] | 86 |  | 85 | 33 | 75 | 90 |  | 91 |  | 
COC=C(C(=O)OC)c1ccccc1COc1cccc(OC(F)=Cc2ccccc2C)c1 [Compound 5] | 50 | 95 | 100 | 0 | 95 | 95 | 94 | 99 | 94 | 94
COC=C(C(=O)OC)c1ccccc1COc1cccc(OC(F)=Cc2cccc(C)c2)c1 [Compound 6] | 86 | 91 | 98 | 41 | 65 | 100 | 100 | 100 | 96 | 96
CNC(=O)C(=COC)c1ccccc1COc1cccc(OC(F)=Cc2cccc(C)c2)c1 [Compound 7] | 46 |  | 0 | 33 | 10 | 26 |  | 0 |  | 
CON=C(C(=O)OC)c1ccccc1COc1cccc(OC(F)=Cc2cccc(C)c2)c1 [Compound 8] | 92 | 90 | 98 | 51 | 92 | 100 | 93 | 97 | 90 | 90
COC(=O)C(=CSC)c1ccccc1COc1cccc(OC(F)=Cc2cccc(C)c2)c1 [Compound 9] | 26 |  | 88 | 33 | 92 | 96 |  | 95 |  | 
COC=C(C(=O)OC)c1ccccc1COc1cccc(OC(F)=Cc2ccc(C)cc2)c1 [Compound 10] | 50 | 96 | 100 | 0 | 92 | 97 | 97 | 95 | 95 | 95
